PubChem BioAssay (NCI)
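Here, GI50 denotes the concentration required for 50% inhibition of growth. TGI marks complete inhibition of growth.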

Assays:
Test in all cases: inhibition of tumour cell growth, NCI panel, 384-well format
IGROV1 ovarian = test system: IGROV1 ovarian
SK-MEL-5 melanoma = test system: SK-MEL-5 melanoma
NCI-H460 NSCLC = test system: NCI-H460 NSCLC
SW-620 colon = test system: SW-620 colon
RXF 393 renal = test system: RXF 393 renal
SK-MEL-28 melanoma = test system: SK-MEL-28 melanoma
OVCAR-4 ovarian = test system: OVCAR-4 ovarian
U251 glioblastoma = test system: U251 glioblastoma
HS 578T breast = test system: HS 578T breast
HOP-92 NSCLC = test system: HOP-92 NSCLC
RPMI-8226 leukemia = test system: RPMI-8226 leukemia
K-562 leukemia = test system: K-562 leukemia
SF-539 CNS = test system: SF-539 CNS
HCT-15 colon = test system: HCT-15 colon
HT29 colon = test system: HT29 colon
NCI-H322M lung = test system: NCI-H322M lung
COLO 205 colon = test system: COLO 205 colon
OVCAR-3 ovarian = test system: OVCAR-3 ovarian
UACC-62 melanoma = test system: UACC-62 melanoma
786-0 renal = test system: 786-0 renal
HL-60(TB) leukemia = test system: HL-60(TB) leukemia
HCT-116 colon = test system: HCT-116 colon
HCC-2998 colon = test system: HCC-2998 colon
UO-31 renal = test system: UO-31 renal
MCF7 breast = test system: MCF7 breast
OVCAR-8 ovarian = test system: OVCAR-8 ovarian
NCI-H522 lung = test system: NCI-H522 lung
UACC-257 melanoma = test system: UACC-257 melanoma
MALME-3M melanoma = test system: MALME-3M melanoma
SNB-75 CNS = test system: SNB-75 CNS
NCI/ADR-RES ovarian = test system: NCI/ADR-RES ovarian
PC-3 prostate = test system: PC-3 prostate
MOLT-4 leukemia = test system: MOLT-4 leukemia
SF-268 CNS = test system: SF-268 CNS
A549 NSCLC = test system: A549 NSCLC
LOX IMVI melanoma = test system: LOX IMVI melanoma
BT-549 breast = test system: BT-549 breast
NCI-H226 lung = test system: NCI-H226 lung
EKVX NSCLC = test system: EKVX NSCLC
MDA-MB-435 melanoma = test system: MDA-MB-435 melanoma
OVCAR-5 ovarian = test system: OVCAR-5 ovarian
CCRF-CEM leukemia = test system: CCRF-CEM leukemia
ACHN renal = test system: ACHN renal
HOP-62 NSCLC = test system: HOP-62 NSCLC
MDA-MB-231 breast = test system: MDA-MB-231 breast
TK-10 renal = test system: TK-10 renal
SK-OV-3 ovarian = test system: SK-OV-3 ovarian

## O=C(O)[C@H](Cc1c[nH]c2ccccc12)N1C(=O)c2ccccc2C1=O
IGROV1 ovarian
  GI50: > 100 µM
  TGI: > 100 µM
SK-MEL-5 melanoma
  GI50: > 100 µM
  TGI: > 100 µM
NCI-H460 NSCLC
  GI50: > 100 µM
  TGI: > 100 µM
SW-620 colon
  GI50: > 100 µM
  TGI: > 100 µM
RXF 393 renal
  GI50: > 100 µM
  TGI: > 100 µM
SK-MEL-28 melanoma
  GI50: > 100 µM
  TGI: > 100 µM
OVCAR-4 ovarian
  GI50: > 100 µM
  TGI: > 100 µM
U251 glioblastoma
  GI50: > 100 µM
  TGI: > 100 µM
HS 578T breast
  GI50: > 100 µM
  TGI: > 100 µM
HOP-92 NSCLC
  GI50: > 100 µM
  TGI: > 100 µM
RPMI-8226 leukemia
  GI50: > 100 µM
  TGI: > 100 µM
K-562 leukemia
  GI50: > 100 µM
  TGI: > 100 µM
SF-539 CNS
  GI50: > 100 µM
  TGI: > 100 µM
HCT-15 colon
  GI50: > 100 µM
  TGI: > 100 µM
HT29 colon
  GI50: > 100 µM
  TGI: > 100 µM
NCI-H322M lung
  GI50: > 100 µM
  TGI: > 100 µM
COLO 205 colon
  GI50: > 100 µM
  TGI: > 100 µM
OVCAR-3 ovarian
  GI50: > 100 µM
  TGI: > 100 µM
UACC-62 melanoma
  GI50: > 100 µM
  TGI: > 100 µM
786-0 renal
  GI50: > 100 µM
  TGI: > 100 µM
HL-60(TB) leukemia
  GI50: > 100 µM
  TGI: > 100 µM
HCT-116 colon
  GI50: > 100 µM
  TGI: > 100 µM
HCC-2998 colon
  GI50: > 100 µM
  TGI: > 100 µM
UO-31 renal
  GI50: > 100 µM
  TGI: > 100 µM
MCF7 breast
  GI50: > 100 µM
  TGI: > 100 µM
OVCAR-8 ovarian
  GI50: > 100 µM
  TGI: > 100 µM
NCI-H522 lung
  GI50: > 100 µM
  TGI: > 100 µM
UACC-257 melanoma
  GI50: > 100 µM
  TGI: > 100 µM
MALME-3M melanoma
  GI50: > 100 µM
  TGI: > 100 µM
SNB-75 CNS
  GI50: > 100 µM
  TGI: > 100 µM
NCI/ADR-RES ovarian
  GI50: > 100 µM
  TGI: > 100 µM
PC-3 prostate
  GI50: > 100 µM
  TGI: > 100 µM
MOLT-4 leukemia
  GI50: > 100 µM
  TGI: > 100 µM
SF-268 CNS
  GI50: > 100 µM
  TGI: > 100 µM
A549 NSCLC
  GI50: > 100 µM
  TGI: > 100 µM
LOX IMVI melanoma
  GI50: > 100 µM
  TGI: > 100 µM
BT-549 breast
  GI50: > 100 µM
  TGI: > 100 µM
NCI-H226 lung
  GI50: > 100 µM
  TGI: > 100 µM
EKVX NSCLC
  GI50: > 100 µM
  TGI: > 100 µM
MDA-MB-435 melanoma
  GI50: > 100 µM
  TGI: > 100 µM
OVCAR-5 ovarian
  GI50: > 100 µM
  TGI: > 100 µM
CCRF-CEM leukemia
  GI50: > 100 µM
  TGI: > 100 µM
ACHN renal
  GI50: > 100 µM
  TGI: > 100 µM
HOP-62 NSCLC
  GI50: > 100 µM
  TGI: > 100 µM
MDA-MB-231 breast
  GI50: > 100 µM
  TGI: > 100 µM
TK-10 renal
  GI50: > 100 µM
  TGI: > 100 µM
SK-OV-3 ovarian
  GI50: > 100 µM
  TGI: > 100 µM
